Results: patent publication US6987106B1, “1,4-diazabicyclo[3.2.2]nonane-4-carboxylates and carboxamide derivates, production and use thereof in therapeutics” (Sanofi-Aventis, priority 1999, dated 2006)

- melting point: 206 to 207 °C
SMILES: Br.CN(C(=O)N1CCN2CCC1CC2)c1ccccc1
